ChEMBL document CHEMBL1201862, “PubChem BioAssay data set” (2004)
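Assay format: 96-well plates, 48-hour exposure. GI50 = concentration required for 50% inhibition of growth.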 The source made the active and inactive calls. Cut-off read from the data, not from the text of the source: active = GI50 up to about 1.1 µM and inactive = higher.

What was measured:
Test in all cases: inhibition of tumour cell growth, NCI panel, 48 h
RXF 393 = system: RXF 393
XF498 = system: XF498
EKVX = system: EKVX
HOP-92 = system: HOP-92
A498 = system: A498
RPMI-8226 = system: RPMI-8226
NCI-H226 = system: NCI-H226
HT-29 = system: HT-29
UACC-257 = system: UACC-257
HCT-15 = system: HCT-15
OVCAR-8 = system: OVCAR-8
U-251 = system: U-251
786-0 = system: 786-0
DU-145 = system: DU-145
Hs-578T = system: Hs-578T
BT-549 = system: BT-549
SK-OV-3 = system: SK-OV-3
MCF7 = system: MCF7
NCI/ADR-RES = system: NCI/ADR-RES
MDA-N = system: MDA-N

## O=c1c2cc3ccccc3n2c(=O)c2cc3ccccc3n12
RXF 393
  GI50: > 100 µM (inactive)
XF498
  GI50: > 100 µM (inactive)
EKVX
  GI50: > 100 µM (inactive)
HOP-92
  GI50: > 100 µM (inactive)
A498
  GI50: > 100 µM (inactive)
RPMI-8226
  GI50: > 100 µM (inactive)
NCI-H226
  GI50: > 100 µM (inactive)
HT-29
  GI50: > 100 µM (inactive)
UACC-257
  GI50: > 100 µM (inactive)
HCT-15
  GI50: > 100 µM
OVCAR-8
  GI50: > 100 µM (inactive)
U-251
  GI50: > 100 µM (inactive)
786-0
  GI50: > 100 µM (inactive)

## CCC(=O)OC1CCn2c1nc1c2C(=O)C(C)=C(N2CC2)C1=O (stereo not drawn)
DU-145
  GI50: 0.00743 µM (active)
Hs-578T
  GI50: 0.0455 µM (active)
BT-549
  GI50: 0.0546 µM (active)
RXF 393
  GI50: 0.0565 µM (active)
SK-OV-3
  GI50: 0.103 µM (active)
XF498
  GI50: 0.0345 µM (active)
MCF7
  GI50: 0.00637 µM (active)
EKVX
  GI50: 0.224 µM (active)
HOP-92
  GI50: 1.53 µM (inactive)
A498
  GI50: 0.0526 µM (active)
NCI/ADR-RES
  GI50: 0.048 µM (active)
NCI-H226
  GI50: 0.111 µM (active)
HT-29
  GI50: 0.183 µM (active)
UACC-257
  GI50: 0.0711 µM (active)
HCT-15
  GI50: 0.0275 µM
OVCAR-8
  GI50: 0.0678 µM (active)
U-251
  GI50: 0.0371 µM (active)
MDA-N
  GI50: 0.043 µM (active)
786-0
  GI50: 0.0841 µM (active)

## CCOC(=O)/N=c1\ss/c(=N\C(=S)N(C)C)n1-c1ccccc1
RXF 393
  GI50: 1.07 µM (active)
SK-OV-3
  GI50: > 10 µM (inactive)
XF498
  GI50: 28.8 µM (inactive)
EKVX
  GI50: > 100 µM (inactive)
HOP-92
  GI50: 25.8 µM (inactive)
A498
  GI50: 4.42 µM (inactive)
RPMI-8226
  GI50: 7.48 µM (inactive)
NCI-H226
  GI50: > 10 µM (inactive)
HT-29
  GI50: 3.17 µM (inactive)
UACC-257
  GI50: > 10 µM (inactive)
HCT-15
  GI50: > 10 µM
OVCAR-8
  GI50: > 10 µM (inactive)
U-251
  GI50: 19.4 µM (inactive)
786-0
  GI50: 14.6 µM (inactive)

## O=[N+]([O-])c1cccc(C2=NN(c3ccccc3)C[N+](c3ccc(Br)cc3)=N2)c1
RXF 393
  GI50: > 100 µM (inactive)
SK-OV-3
  GI50: > 100 µM (inactive)
XF498
  GI50: > 100 µM (inactive)
EKVX
  GI50: > 100 µM (inactive)
HOP-92
  GI50: 83.2 µM (inactive)
A498
  GI50: > 100 µM (inactive)
RPMI-8226
  GI50: 82 µM (inactive)
HT-29
  GI50: 47.4 µM (inactive)
UACC-257
  GI50: > 100 µM (inactive)
HCT-15
  GI50: > 100 µM
OVCAR-8
  GI50: > 100 µM (inactive)
U-251
  GI50: > 100 µM (inactive)
786-0
  GI50: > 100 µM (inactive)

## CC1(C)O[C@H]2OC3CCC(=O)CC3(O)[C@H]2O1 (stereo partly drawn)
DU-145
  GI50: > 100 µM (inactive)
Hs-578T
  GI50: > 100 µM (inactive)
BT-549
  GI50: > 100 µM (inactive)
RXF 393
  GI50: > 100 µM (inactive)
SK-OV-3
  GI50: > 100 µM (inactive)
XF498
  GI50: 0.507 µM (active)
MCF7
  GI50: > 100 µM (inactive)
EKVX
  GI50: > 100 µM (inactive)
HOP-92
  GI50: > 73.3 µM (inactive)
A498
  GI50: > 100 µM (inactive)
RPMI-8226
  GI50: > 100 µM (inactive)
NCI/ADR-RES
  GI50: > 100 µM (inactive)
NCI-H226
  GI50: > 100 µM (inactive)
HT-29
  GI50: > 100 µM (inactive)
UACC-257
  GI50: > 100 µM (inactive)
HCT-15
  GI50: > 100 µM
OVCAR-8
  GI50: > 100 µM (inactive)
U-251
  GI50: > 100 µM (inactive)
MDA-N
  GI50: > 100 µM (inactive)
786-0
  GI50: > 100 µM (inactive)

## CCO[C@@H]1C2C=CC(C2)[C@H]1[N+](=O)[O-] (stereo partly drawn)
RXF 393
  GI50: > 100 µM (inactive)
SK-OV-3
  GI50: > 100 µM (inactive)
XF498
  GI50: > 100 µM (inactive)
EKVX
  GI50: > 100 µM (inactive)
HOP-92
  GI50: > 100 µM (inactive)
A498
  GI50: > 100 µM (inactive)
RPMI-8226
  GI50: 72.1 µM (inactive)
NCI-H226
  GI50: > 100 µM (inactive)
HT-29
  GI50: > 100 µM (inactive)
UACC-257
  GI50: > 100 µM (inactive)
HCT-15
  GI50: > 100 µM
OVCAR-8
  GI50: > 100 µM (inactive)
U-251
  GI50: > 100 µM (inactive)
786-0
  GI50: > 100 µM (inactive)

## C[C@@]12CCC(=O)c3coc(c31)C(=O)c1cc3c(cc12)C(=O)C=CC3=O [HELENAQUINONE]
RXF 393
  GI50: 21.2 µM (inactive)
SK-OV-3
  GI50: > 100 µM (inactive)
XF498
  GI50: 18.9 µM (inactive)
EKVX
  GI50: 23.6 µM (inactive)
HOP-92
  GI50: 6.93 µM (inactive)
A498
  GI50: > 100 µM (inactive)
RPMI-8226
  GI50: 64.6 µM (inactive)
NCI-H226
  GI50: 29 µM (inactive)
HT-29
  GI50: 19.7 µM (inactive)
UACC-257
  GI50: 11.6 µM (inactive)
HCT-15
  GI50: 17.3 µM
OVCAR-8
  GI50: 16.3 µM (inactive)
U-251
  GI50: 23.7 µM (inactive)
786-0
  GI50: 17.2 µM (inactive)

## CC1(C)OC(=O)C(=C2CCC(C(=O)Nc3cccc(C(F)(F)F)c3)N2)C(=O)O1 (stereo not drawn)
RXF 393
  GI50: 84.1 µM (inactive)
SK-OV-3
  GI50: > 100 µM (inactive)
XF498
  GI50: 31.3 µM (inactive)
EKVX
  GI50: 50.6 µM (inactive)
HOP-92
  GI50: 56.2 µM (inactive)
A498
  GI50: 66.1 µM (inactive)
RPMI-8226
  GI50: 51.2 µM (inactive)
NCI-H226
  GI50: 91 µM (inactive)
HT-29
  GI50: 75.7 µM (inactive)
UACC-257
  GI50: 40.3 µM (inactive)
HCT-15
  GI50: > 100 µM
OVCAR-8
  GI50: > 100 µM (inactive)
U-251
  GI50: > 100 µM (inactive)
786-0
  GI50: > 100 µM (inactive)

## N#CCCN(CCC#N)c1ccc(/C=N\c2ccc(F)cc2)cc1
DU-145
  GI50: > 100 µM (inactive)
BT-549
  GI50: > 100 µM (inactive)
RXF 393
  GI50: > 57 µM (inactive)
SK-OV-3
  GI50: > 100 µM (inactive)
XF498
  GI50: > 100 µM (inactive)
MCF7
  GI50: > 100 µM (inactive)
EKVX
  GI50: > 100 µM (inactive)
HOP-92
  GI50: > 100 µM (inactive)
A498
  GI50: > 100 µM (inactive)
RPMI-8226
  GI50: > 39.8 µM (inactive)
NCI-H226
  GI50: > 100 µM (inactive)
UACC-257
  GI50: > 100 µM (inactive)
HCT-15
  GI50: 1.15 µM
OVCAR-8
  GI50: > 100 µM (inactive)
U-251
  GI50: > 100 µM (inactive)
MDA-N
  GI50: 71.3 µM (inactive)
786-0
  GI50: > 31.3 µM (inactive)
